Consider two molecules from article PMC3146814, “The crystal structure of alanine racemase from Streptococcus pneumoniae, a target for structure-based drug design” (BMC Microbiology, 2011).

Data set [1] addresses T1, alanine racemase from S. pneumoniae (AlrSP) (Streptococcus pneumoniae, UniProt P0A2W8).
T1 construct: gene alr; untagged as far as told, gene in pET17, E. coli BL21(DE3) pLysS; monomer residues 1-367; homodimer; Lys129 carbamylated
T1 sequence (P0A2W8 1-367): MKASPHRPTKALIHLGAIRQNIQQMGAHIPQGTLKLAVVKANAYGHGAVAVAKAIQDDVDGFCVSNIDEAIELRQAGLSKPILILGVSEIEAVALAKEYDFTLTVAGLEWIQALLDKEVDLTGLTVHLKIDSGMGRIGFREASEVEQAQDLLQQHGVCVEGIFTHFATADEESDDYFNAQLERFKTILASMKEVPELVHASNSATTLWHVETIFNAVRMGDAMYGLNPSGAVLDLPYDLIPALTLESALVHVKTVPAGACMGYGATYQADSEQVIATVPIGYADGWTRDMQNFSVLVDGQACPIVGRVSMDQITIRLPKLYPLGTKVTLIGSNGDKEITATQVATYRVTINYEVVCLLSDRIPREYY
Briefly: X-ray crystallography, […] Å. It counts as binding. The following applies: covalent; internal aldimine with Lys40 (LLP residue); active site; crystals grown at pH 7.2, 4 °C.

Data set [2] concerns the molecule itself. Briefly: crystal structure; sitting drop vapor diffusion at 4°C, 1.2 M Na citrate, 0.1 M MES pH 7.2, 10% glycerol, protein 23 mg/ml; space group P3(1)21, two monomers in the asymmetric unit; 2.0 Å.

For the molecule `Cc1ncc(COP(=O)(O)O)c(C=O)c1O` [pyridoxal phosphate (PLP)], in data set [1], the “X-ray crystallography, 2.0 Å” value is “The pyridoxal phosphate (PLP) cofactor is connected to Lys40 through an internal aldimine bond”.

B1: alanine racemase from Streptococcus pneumoniae (enzyme, UniProt P0A2W8 1-367, looked up)
chain: T1 sequence (P0A2W8 1-367)
modifications: PLP covalently bound to Lys40 by an internal aldimine bond (N'-pyridoxyl-lysine-5'-monophosphate, LLP); carbamylated Lys129
notes: alanine racemase (E.C. 5.1.1.1) of Streptococcus pneumoniae; the gene was cloned into pET17; the model holds residues 1-367 of each monomer (734 residues, 100%): alpha/beta barrel domain 1-238 and beta-strand domain 239-367; no tag is named; also called AlrSP; Alr
In the case of B1, the stoichiometry N – broadly, the number of molecules, sites or subunits per partner or assembly – in data set [2] worked out at 2.
